Laboratory results as given in patent publication US12162848B2, “Inhibitors of protein tyrosine phosphatase, compositions, and methods of use” (BRISTOL-MYERS SQUIBB COMPANY, priority 2022, dated 2024).

Legend:
[1] = target: T1, PTPN2 enzyme (Homo sapiens, UniProt P17706); assay: PhosphoSens PTPN2 biochemical assay; conditions: substrate AQT0264 20 μM, room temperature; read-out: PTPN2 BCHEM IC50
T1 sequence (P17706 1-415): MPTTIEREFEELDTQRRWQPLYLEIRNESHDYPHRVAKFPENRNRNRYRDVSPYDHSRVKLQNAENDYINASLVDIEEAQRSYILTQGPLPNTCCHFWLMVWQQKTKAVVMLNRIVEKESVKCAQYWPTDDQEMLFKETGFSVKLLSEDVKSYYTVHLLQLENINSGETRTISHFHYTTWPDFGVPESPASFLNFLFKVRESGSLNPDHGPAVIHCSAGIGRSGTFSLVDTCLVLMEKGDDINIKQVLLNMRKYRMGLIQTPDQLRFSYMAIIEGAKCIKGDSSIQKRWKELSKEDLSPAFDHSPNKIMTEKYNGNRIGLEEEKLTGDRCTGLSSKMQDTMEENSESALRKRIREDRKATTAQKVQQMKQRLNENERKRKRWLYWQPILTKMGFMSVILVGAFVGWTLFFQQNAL
Protocol: A PhosphoSens® kinase assay was performed as described by the vendor (AssayQuant Technologies, Marlborough, MA). Briefly, 1000×solutions of compounds were prepared in DMSO via serial dilution of the 10 mM DMSO stocks using 3-fold intervals in a 384-well reagent plate. 50 nL of the compound dilution series was then added to the corresponding wells of a 384-well assay plate. […] of 1.25×substrate (AQT0264) in 1× assay buffer (50 mM HEPES pH 7.5, 500 μM EGTA, […] MgCl2, 0.01% Brij-35, 1% Glycerol, 1 mM DTT, and 0.2 mg/mL BSA) was transferred to each well of the assay plate to achieve a final substrate concentration of 20 μM. Finally, […] of 5×PTPN2 enzyme stock was added to each well of the assay plate for a final enzyme concentration of […]. Reaction progress curves were collected by sampling fluorescence intensity at the excitation wavelength 360 nm (λex360) and emission wavelength 480 nm (λem480) every 71 seconds for one hour using a Synergy H4 plate reader (BioTek Instruments/Agilent Technologies, Winooski, VT) at room temperature.

[2] = tested on: phosphorylated STAT1 protein levels in B16-F10 cells; assay: Phospho-STAT1 (Tyr701) HTRF assay in IFN-gamma treated B16-F10 cells; assay type: cell-based; conditions: mouse IFN-gamma 100 ng/mL, 1 hour, read-out: pSTAT1 HTRF B16 EC50
Protocol: B16-F10 cells (ATCC, Manassas, VA, #CRL-6475) were cultured in DMEM growth medium (ThermoFisher Scientific, Waltham, MA, #11995-040) supplemented with 10% heat inactivated FBS (ThermoFisher Scientific, #16140-071) and 1% pen/strep (ThermoFisher Scientific, #15140-122). The cells were seeded into a white opaque 384-well tissue culture treated microplate (PerkinElmer, Waltham, MA, #6007688) at a density of 10,000 cells/well in 20 uL total volume and incubated overnight at 37 C and 5% CO2. 30 nL of compounds dissolved in DMSO were then transferred from a source plate into target wells with the Echo650 acoustic liquid handler (Beckman Coulter, Indianapolis, IN). Negative control wells received 30 nL of DMSO only (0.15% final concentration). Plates were returned to the incubator for 1 hour and then cells treated with either 5 uL of growth medium or 5 uL of growth medium containing 500 ng/mL of recombinant mouse IFN-gamma protein (R&D Systems, Minneapolis, MN, #485-MI/CF, 100 ng/mL final concentration) using the Assist automated pipetting platform (INTEGRA Biosciences, Hudson, NH). Plates were incubated at 37 C for 1 hour and assayed for phosphorylated STAT1 protein levels with the phospho-STAT1 (Tyr701) HTRF kit (Cisbio, Bedford, MA, #63ADK026PEH) according to manufacturer's instructions.

In the case of CC(=O)N1CCC[C@@H](NCc2cc(O)c(N3CC(=O)NS3(=O)=O)c(F)c2)C1 [EXAMPLE 68, 5-[4-[[[(3R)-1-acetyl-3-piperidyl]amino]methyl]-2-fluoro-6-hydroxy-phenyl]-1,1-dioxo-1,2,5-thiadiazolidin-3-one], the IC50 [1] is reported as 0.032 µM and the EC50 [2] is reported as 6.68 µM.
With CN1CCCC(c2cc(O)c(N3CC(=O)NS3(=O)=O)c(F)c2)C1 (stereo not shown) [EXAMPLE 3, 5-(2-fluoro-6-hydroxy-4-(1-methylpiperidin-3-yl)phenyl)-1,2,5-thiadiazolidin-3-one 1,1-dioxide] the IC50 [1] was 4.73 µM.
Molecule O=C1CN(c2c(O)cc(C3CCNCC3)cc2F)S(=O)(=O)N1 [EXAMPLE 2, 5-[2-fluoro-6-hydroxy-4-(4-piperidyl)phenyl]-1,1-dioxo-1,2,5-thiadiazolidin-3-one] has an IC50 [1] of 1.3 µM.
Molecule CC(C)CCN1CCN(Cc2ccc(O)c(N3CC(=O)NS3(=O)=O)c2F)CC1 [EXAMPLE 104, 5-[2-fluoro-6-hydroxy-3-[(4-isopentylpiperazin-1-yl)methyl]phenyl]-1,1-dioxo-1,2,5-thiadiazolidin-3-one] has an EC50 [2] of at least 15 µM.
Work on CC(C)CCN1CCC(c2cc(O)c(N3CC(=O)NS3(=O)=O)c(F)c2)CC1 [EXAMPLE 6, 5-[2-fluoro-6-hydroxy-4-(1-isopentyl-4-piperidyl)phenyl]-1,1-dioxo-1,2,5-thiadiazolidin-3-one] yielded an IC50 [1] of 2.75 µM.
In the case of O=C1CN(c2c(O)cc(CNc3cc(C4CC4)ccn3)cc2F)S(=O)(=O)N1 [EXAMPLE 82, 5-[4-[[(4-cyclopropyl-2-pyridyl)amino]methyl]-2-fluoro-6-hydroxy-phenyl]-1,1-dioxo-1,2,5-thiadiazolidin-3-one], the IC50 [1] is reported as 0.01 µM and the EC50 [2] is reported as 0.197 µM.
CC(=O)N1CCN(Cc2cc(O)c(N3CC(=O)NS3(=O)=O)c(F)c2)CC1 [EXAMPLE 38, 5-(4-((4-acetylpiperazin-1-yl)methyl)-2-fluoro-6-hydroxyphenyl)-1,2,5-thiadiazolidin-3-one 1,1-dioxide] gave an IC50 [1] of 0.083 µM.
Work on CN(Cc1cc(O)c(N2CC(=O)NS2(=O)=O)c(F)c1)C1CCC(C)(C)CC1 [EXAMPLE 77, 5-[4-[[(4,4-dimethylcyclohexyl)-methyl-amino]methyl]-2-fluoro-6-hydroxy-phenyl]-1,1-dioxo-1,2,5-thiadiazolidin-3-one] yielded an EC50 [2] of at least 15 µM.
With O=C1CN(c2c(O)cc(CN[C@H]3CCCN(S(=O)(=O)c4cccc(F)c4)C3)cc2F)S(=O)(=O)N1 [EXAMPLE 70, 5-[2-fluoro-4-[[[(3S)-1-(3-fluorophenyl)sulfonyl-3-piperidyl]amino]methyl]-6-hydroxy-phenyl]-1,1-dioxo-1,2,5-thiadiazolidin-3-one] the IC50 [1] was 0.03 µM and the EC50 [2] was at least 15 µM.
O=C1CN(c2c(O)cc(NC3CCNCC3)cc2F)S(=O)(=O)N1 [EXAMPLE 88, 5-(2-fluoro-6-hydroxy-4-(piperidin-4-ylamino)phenyl)-1,2,5-thiadiazolidin-3-one 1,1-dioxide] gave an IC50 [1] of 1.2 µM.
For N#Cc1cc(CNCc2cc(O)c(N3CC(=O)NS3(=O)=O)c(F)c2)ccc1F [EXAMPLE 45, 2-fluoro-5-[[[3-fluoro-5-hydroxy-4-(1,1,4-trioxo-1,2,5-thiadiazolidin-2-yl)phenyl]methylamino]methyl]benzonitrile], the IC50 [1] was 0.07 µM and the EC50 [2] was 1.87 µM.
In the case of CCCN(Cc1cc(O)c(N2CC(=O)NS2(=O)=O)c(F)c1)CC1CCC1 [EXAMPLE 78, 5-[4-[[cyclobutylmethyl(propyl)amino]methyl]-2-fluoro-6-hydroxy-phenyl]-1,1-dioxo-1,2,5-thiadiazolidin-3-one], the IC50 [1] is reported as 0.806 µM and the EC50 [2] is reported as at least 15 µM.
With CN(C)C1CCN(Cc2ccc(O)c(N3CC(=O)NS3(=O)=O)c2F)CC1 [EXAMPLE 102, 5-(3-((4-(dimethylamino)piperidin-1-yl)methyl)-2-fluoro-6-hydroxyphenyl)-1,2,5-thiadiazolidin-3-one 1,1-dioxide] the EC50 [2] was at least 15 µM.
Work on O=C1CN(c2c(O)ccc(CN3CCC(F)CC3)c2F)S(=O)(=O)N1 [EXAMPLE 98, 5-(2-fluoro-3-((4-fluoropiperidin-1-yl)methyl)-6-hydroxyphenyl)-1,2,5-thiadiazolidin-3-one 1,1-dioxide] yielded an EC50 [2] of at least 15 µM.
